According to PubChem BioAssay (NCI):
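Dose response: 5 concentrations. Exposure: 48 h. Format: 96-well plates. Endpoint: linear interpolation; highest concentration if not reached. Abbreviation: GI50, concentration required for 50% inhibition of growth. At the TGI there is no net growth.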

Key:
Test in all cases: NCI-60 cell line screen, 48 h
[1] = system: 786-0 renal
[2] = system: A498 renal
[3] = system: A549 NSCLC
[4] = system: ACHN renal
[5] = system: BT-549 breast
[6] = system: CAKI-1 renal
[7] = system: CCRF-CEM leukemia
[8] = system: COLO 205 colon
[9] = system: DU-145 prostate
[10] = system: EKVX NSCLC
[11] = system: HCC-2998 colon
[12] = system: HCT-116 colon
[13] = system: HCT-15 colon
[14] = system: HL-60(TB) leukemia
[15] = system: HOP-62 NSCLC
[16] = system: HOP-92 NSCLC
[17] = system: HS 578T breast
[18] = system: HT29 colon
[19] = system: IGROV1 ovarian
[20] = system: K-562 leukemia
[21] = system: KM12 colon
[22] = system: LOX IMVI melanoma
[23] = system: M14 melanoma
[24] = system: MALME-3M melanoma
[25] = system: MCF7 breast
[26] = system: MDA-MB-231 breast
[27] = system: MDA-MB-435
[28] = system: MOLT-4 leukemia
[29] = system: NCI-H226 lung
[30] = system: NCI-H23 lung
[31] = system: NCI-H460 lung
[32] = system: NCI-H522 lung
[33] = system: NCI/ADR-RES ovarian
[34] = system: OVCAR-3 ovarian
[35] = system: OVCAR-4 ovarian
[36] = system: OVCAR-5 ovarian
[37] = system: OVCAR-8 ovarian
[38] = system: PC-3 prostate
[39] = system: RPMI-8226 leukemia
[40] = system: SF-268 CNS
[41] = system: SF-295 CNS
[42] = system: SF-539 CNS
[43] = system: SK-MEL-2 melanoma
[44] = system: SK-MEL-28 melanoma
[45] = system: SK-MEL-5 melanoma
[46] = system: SK-OV-3 ovarian
[47] = system: SN12C renal
[48] = system: SNB-19 CNS
[49] = system: SNB-75 CNS
[50] = system: SR leukemia
[51] = system: SW-620 colon
[52] = system: T-47D breast
[53] = system: TK-10 renal
[54] = system: U251 CNS
[55] = system: UACC-257 melanoma
[56] = system: UACC-62 melanoma
[57] = system: UO-31 renal

Which results are given for `CN1CCN(c2ccc(Nc3nc(NCCCNS(=O)(=O)c4ccc(Cl)cc4)c4sccc4n3)cc2)CC1`?
GI50 [1]: 2.12 µM; TGI [1]: 6.29 µM; GI50 [2]: 20.4 µM; TGI [2]: 34.8 µM; GI50 [3]: 18.7 µM; TGI [3]: 61.7 µM; GI50 [4]: 11.2 µM; TGI [4]: 23.2 µM; GI50 [5]: 3.12 µM; TGI [5]: 14.4 µM; GI50 [6]: 15.5 µM; TGI [6]: 28.8 µM; GI50 [7]: 4.22 µM; TGI [7]: > 100 µM; GI50 [8]: 15.6 µM; TGI [8]: 37.8 µM; GI50 [9]: 14 µM; TGI [9]: 28.9 µM; GI50 [10]: 14.1 µM; TGI [10]: 30 µM; GI50 [11]: 7.31 µM; TGI [11]: 20 µM; GI50 [12]: 2.3 µM; TGI [12]: 6.99 µM; GI50 [13]: 3.08 µM; TGI [13]: 12.4 µM; GI50 [14]: 2.12 µM; TGI [14]: 5.11 µM; GI50 [15]: 19.6 µM; TGI [15]: 37 µM; GI50 [16]: 2.16 µM; TGI [16]: 16.2 µM; GI50 [17]: 13.8 µM; TGI [17]: 44.7 µM; GI50 [18]: 3.75 µM; TGI [18]: 19.4 µM; GI50 [19]: 10.7 µM; TGI [19]: 22.8 µM; GI50 [20]: 2.95 µM; TGI [20]: > 100 µM; GI50 [21]: 16.4 µM; TGI [21]: 51.1 µM; GI50 [22]: 1.69 µM; TGI [22]: 3.48 µM; GI50 [23]: 2 µM; TGI [23]: 3.94 µM; GI50 [24]: 2.12 µM; TGI [24]: 3.91 µM; GI50 [25]: 6.47 µM; TGI [25]: 21.1 µM; GI50 [26]: 4.94 µM; TGI [26]: 17.3 µM; GI50 [27]: 9.17 µM; TGI [27]: 21.2 µM; GI50 [28]: 3.58 µM; TGI [28]: 33.4 µM; GI50 [29]: 12 µM; TGI [29]: 24.9 µM; GI50 [30]: 14.1 µM; TGI [30]: 29.1 µM; GI50 [31]: 8.01 µM; TGI [31]: 22 µM; GI50 [32]: 11.8 µM; TGI [32]: 27 µM; GI50 [33]: 19.4 µM; TGI [33]: 58.3 µM; GI50 [34]: 6.81 µM; TGI [34]: 35.9 µM; GI50 [35]: 12.2 µM; TGI [35]: 25.1 µM; GI50 [36]: 13.3 µM; TGI [36]: 27.4 µM; GI50 [37]: 8.57 µM; TGI [37]: 53.8 µM; GI50 [38]: 9.62 µM; TGI [38]: 26.4 µM; GI50 [39]: 3.04 µM; TGI [39]: 9.67 µM; GI50 [40]: 11.5 µM; TGI [40]: 34.9 µM; GI50 [41]: 12.2 µM; TGI [41]: 27 µM; GI50 [42]: 1.82 µM; TGI [42]: 3.55 µM; GI50 [43]: 17.2 µM; TGI [43]: 33.1 µM; GI50 [44]: 2.38 µM; TGI [44]: 6.22 µM; GI50 [45]: 10.2 µM; TGI [45]: 22 µM; GI50 [46]: 29 µM; TGI [46]: 60.9 µM; GI50 [47]: 12.9 µM; TGI [47]: 25.5 µM; GI50 [48]: 10.6 µM; TGI [48]: 22.4 µM; GI50 [49]: 13.5 µM; TGI [49]: 26.5 µM; GI50 [50]: 2.83 µM; TGI [50]: > 100 µM; GI50 [51]: 5.2 µM; TGI [51]: 18.6 µM; GI50 [52]: 22.1 µM; TGI [52]: 54.1 µM; GI50 [53]: 19.6 µM; TGI [53]: 35.7 µM; GI50 [54]: 4.06 µM; TGI [54]: 23.2 µM; GI50 [55]: 2.39 µM; TGI [55]: 6.44 µM; GI50 [56]: 3 µM; TGI [56]: 11.1 µM; GI50 [57]: 13 µM; TGI [57]: 25.7 µM
